From PubChem BioAssay (NCI)
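Exposure lasted 48 hours, with cells grown in 96-well plates and compounds tested at five concentrations. TGI is the concentration that stops growth completely.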

Legend:
Test in all cases: NCI tumour cell line growth inhibition, 48 h
CAKI-1 renal = test system: CAKI-1 renal
IGROV1 ovarian = test system: IGROV1 ovarian
A498 renal = test system: A498 renal
HL-60(TB) leukemia = test system: HL-60(TB) leukemia
MALME-3M melanoma = test system: MALME-3M melanoma
U251 CNS = test system: U251 CNS
OVCAR-3 ovarian = test system: OVCAR-3 ovarian
A549 NSCLC = test system: A549 NSCLC
HCT-15 colon = test system: HCT-15 colon
TK-10 renal = test system: TK-10 renal
MOLT-4 leukemia = test system: MOLT-4 leukemia
ACHN renal = test system: ACHN renal
M14 melanoma = test system: M14 melanoma
MDA-MB-231 breast = test system: MDA-MB-231 breast
SF-268 CNS = test system: SF-268 CNS
NCI-H226 lung = test system: NCI-H226 lung
KM12 colon = test system: KM12 colon
NCI-H23 lung = test system: NCI-H23 lung
SN12C renal = test system: SN12C renal
MCF7 breast = test system: MCF7 breast
HCT-116 colon = test system: HCT-116 colon
HOP-62 NSCLC = test system: HOP-62 NSCLC
CCRF-CEM leukemia = test system: CCRF-CEM leukemia
HS 578T breast = test system: HS 578T breast
SK-OV-3 ovarian = test system: SK-OV-3 ovarian
SF-539 CNS = test system: SF-539 CNS
SNB-75 CNS = test system: SNB-75 CNS
786-0 renal = test system: 786-0 renal
NCI/ADR-RES ovarian = test system: NCI/ADR-RES ovarian
SF-295 CNS = test system: SF-295 CNS
EKVX NSCLC = test system: EKVX NSCLC
SK-MEL-28 melanoma = test system: SK-MEL-28 melanoma
MDA-N = test system: MDA-N
K-562 leukemia = test system: K-562 leukemia
HT29 colon = test system: HT29 colon
OVCAR-8 ovarian = test system: OVCAR-8 ovarian
SW-620 colon = test system: SW-620 colon
NCI-H460 lung = test system: NCI-H460 lung
COLO 205 colon = test system: COLO 205 colon
SK-MEL-5 melanoma = test system: SK-MEL-5 melanoma
BT-549 breast = test system: BT-549 breast
UACC-257 melanoma = test system: UACC-257 melanoma
OVCAR-5 ovarian = test system: OVCAR-5 ovarian
HCC-2998 colon = test system: HCC-2998 colon
DU-145 prostate = test system: DU-145 prostate
UO-31 renal = test system: UO-31 renal
SNB-19 CNS = test system: SNB-19 CNS
SR leukemia = test system: SR leukemia
T-47D breast = test system: T-47D breast
SK-MEL-2 melanoma = test system: SK-MEL-2 melanoma
NCI-H522 lung = test system: NCI-H522 lung
RXF 393 renal = test system: RXF 393 renal
UACC-62 melanoma = test system: UACC-62 melanoma
OVCAR-4 ovarian = test system: OVCAR-4 ovarian
PC-3 prostate = test system: PC-3 prostate
LOX IMVI melanoma = test system: LOX IMVI melanoma
RPMI-8226 leukemia = test system: RPMI-8226 leukemia
HOP-92 NSCLC = test system: HOP-92 NSCLC
MDA-MB-435 = test system: MDA-MB-435

What does the source list for `Cc1cc(C#N)c[n+](C)c1`?
TGI (CAKI-1 renal): > 100 µM; TGI (IGROV1 ovarian): > 100 µM; TGI (A498 renal): > 100 µM; TGI (HL-60(TB) leukemia): > 100 µM; TGI (MALME-3M melanoma): > 100 µM; TGI (U251 CNS): > 100 µM; TGI (OVCAR-3 ovarian): > 100 µM; TGI (A549 NSCLC): > 100 µM; TGI (HCT-15 colon): > 100 µM; TGI (TK-10 renal): > 100 µM; TGI (MOLT-4 leukemia): > 100 µM; TGI (ACHN renal): > 100 µM; TGI (M14 melanoma): > 100 µM; TGI (MDA-MB-231 breast): > 100 µM; TGI (SF-268 CNS): > 100 µM; TGI (NCI-H226 lung): > 100 µM; TGI (KM12 colon): > 100 µM; TGI (NCI-H23 lung): > 100 µM; TGI (SN12C renal): > 100 µM; TGI (MCF7 breast): > 100 µM; TGI (HCT-116 colon): > 100 µM; TGI (HOP-62 NSCLC): > 100 µM; TGI (CCRF-CEM leukemia): > 100 µM; TGI (HS 578T breast): > 100 µM; TGI (SK-OV-3 ovarian): > 100 µM; TGI (SF-539 CNS): > 100 µM; TGI (SNB-75 CNS): > 100 µM; TGI (786-0 renal): > 100 µM; TGI (NCI/ADR-RES ovarian): > 100 µM; TGI (SF-295 CNS): > 100 µM; TGI (EKVX NSCLC): > 100 µM; TGI (SK-MEL-28 melanoma): > 100 µM; TGI (MDA-N): > 100 µM; TGI (K-562 leukemia): > 100 µM; TGI (HT29 colon): > 100 µM; TGI (OVCAR-8 ovarian): > 100 µM; TGI (SW-620 colon): > 100 µM; TGI (NCI-H460 lung): > 100 µM; TGI (COLO 205 colon): > 100 µM; TGI (SK-MEL-5 melanoma): > 100 µM; TGI (BT-549 breast): > 100 µM; TGI (UACC-257 melanoma): > 100 µM; TGI (OVCAR-5 ovarian): > 100 µM; TGI (HCC-2998 colon): > 100 µM; TGI (DU-145 prostate): > 100 µM; TGI (UO-31 renal): > 100 µM; TGI (SNB-19 CNS): > 100 µM; TGI (SR leukemia): > 100 µM; TGI (T-47D breast): > 100 µM; TGI (SK-MEL-2 melanoma): > 100 µM; TGI (NCI-H522 lung): > 100 µM; TGI (RXF 393 renal): > 100 µM; TGI (UACC-62 melanoma): > 100 µM; TGI (OVCAR-4 ovarian): > 100 µM; TGI (PC-3 prostate): > 100 µM

What does the source list for `CC1(F)C=CC(=O)C=C1`?
TGI (CAKI-1 renal): > 100 µM; TGI (A498 renal): > 100 µM; TGI (LOX IMVI melanoma): 31.4 µM; TGI (HL-60(TB) leukemia): 93.1 µM; TGI (MALME-3M melanoma): 68.9 µM; TGI (U251 CNS): > 100 µM; TGI (OVCAR-3 ovarian): > 100 µM; TGI (A549 NSCLC): > 100 µM; TGI (HCT-15 colon): 45.7 µM; TGI (TK-10 renal): > 100 µM; TGI (MOLT-4 leukemia): > 100 µM; TGI (ACHN renal): > 100 µM; TGI (M14 melanoma): > 100 µM; TGI (MDA-MB-231 breast): > 100 µM; TGI (SF-268 CNS): > 100 µM; TGI (NCI-H226 lung): > 100 µM; TGI (KM12 colon): > 100 µM; TGI (NCI-H23 lung): > 100 µM; TGI (SN12C renal): > 100 µM; TGI (MCF7 breast): > 100 µM; TGI (HCT-116 colon): > 100 µM; TGI (HOP-62 NSCLC): > 100 µM; TGI (CCRF-CEM leukemia): > 100 µM; TGI (HS 578T breast): > 100 µM; TGI (SK-OV-3 ovarian): > 100 µM; TGI (SF-539 CNS): > 100 µM; TGI (SNB-75 CNS): > 100 µM; TGI (786-0 renal): 35 µM; TGI (NCI/ADR-RES ovarian): 34.8 µM; TGI (SF-295 CNS): > 100 µM; TGI (EKVX NSCLC): > 100 µM; TGI (SK-MEL-28 melanoma): > 100 µM; TGI (MDA-N): > 100 µM; TGI (K-562 leukemia): > 100 µM; TGI (HT29 colon): > 100 µM; TGI (OVCAR-8 ovarian): 42.7 µM; TGI (SW-620 colon): 42.3 µM; TGI (NCI-H460 lung): > 100 µM; TGI (COLO 205 colon): > 100 µM; TGI (SK-MEL-5 melanoma): > 100 µM; TGI (BT-549 breast): > 100 µM; TGI (UACC-257 melanoma): > 100 µM; TGI (RPMI-8226 leukemia): > 100 µM; TGI (OVCAR-5 ovarian): > 100 µM; TGI (HCC-2998 colon): > 100 µM; TGI (DU-145 prostate): > 100 µM; TGI (UO-31 renal): > 100 µM; TGI (HOP-92 NSCLC): 72.1 µM; TGI (SNB-19 CNS): > 100 µM; TGI (SR leukemia): > 100 µM; TGI (SK-MEL-2 melanoma): > 100 µM; TGI (NCI-H522 lung): > 100 µM; TGI (UACC-62 melanoma): > 100 µM; TGI (MDA-MB-435): > 100 µM; TGI (OVCAR-4 ovarian): > 100 µM; TGI (PC-3 prostate): > 100 µM
